Results taken from patent US9539298B2, “Lissencephaly therapeutic agent” (OSAKA CITY UNIVERSITY, priority 2010, dated 2017).

Experiments:
[1] = test system: LIS1 heterozygous mice (lissencephaly model mice); test: Behavior analysis: Gait Analysis; format: in vivo, mouse; conditions: 200 μg/g per day oral; for Swing-to-Stance Ratio: FIG. 13
Procedure: (§1) To conduct a behavior analysis experiment, wild-type mice and Lis1 (^+/−) heterozygous mice were divided into five groups (C group, M1 group, M2 group, M3 group, and M4 group). The details regarding the mice in each group are described below. CE-2 (CLEA Japan, Inc.) was used as mice feed. The wild-type mice and heterozygous mice used for this experiment were prepared in the same method as described in the above section “Preparation of LIS1 gene hetero-deficient mice (LIS1 heterozygous mice).”
(§2) M2 group: LIS1 heterozygous mice prepared as follows. SNJ-1945 was dissolved in dimethyl sulfoxide (Sigma, D-5879) at a concentration of 100 mg/ml, and administered to pregnant mice from Day 9.5 of the embryonic period (E9.5) in an amount of 200 μg per gram of maternal body weight per day. The administration was performed by adding SNJ-1945 to mice feed. During the postnatal period, the administration was continued in the same manner as in M3 group below. M3 group: LIS1 heterozygous mice prepared as follows. […]
(§3) By adding SNJ-1945 to the mice feed (CE-2, CLEA Japan, Inc.), SNJ-1945 was continuously administered to the mice so that the administration amount became 200 μg per gram of body weight per day through oral administration. For a behavior analysis experiment, 12 to 16 mice were grouped to be subjected to preliminary breeding in the behavior experiment facility for 1 to 2 weeks; thereafter, the behavior of the mice was analyzed at an age of about 9 to 12 weeks. After the behavior analysis experiment, a gene type was determined for all mice.
Statistical processing of experiment data of mice behavior analysis was conducted using Stat View (SAS institute) statistics software. ANOVA assay (analysis of variance between multiple groups) was conducted for all five groups, and a group with a risk rate (p value) of less than 5% (p<0.05) was determined to have a significant difference. […]

[2] = test system: LIS1 heterozygous mice (lissencephaly model mice); test: Behavior analysis: rotor rod test; format: in vivo, mouse; conditions: M2 and M3 groups, 200 μg/g per day oral
Procedure: as §1
as §2, with “feed.” for “feed. During the postnatal period, the administration was continued in the same manner as in M3 group below. M3 group: LIS1 heterozygous mice prepared as follows.”
as §3, with “mice. […]” for “mice.”

COCCOCCOC(=O)N[C@@H](CC(C)C)C(=O)N[C@@H](Cc1ccccc1)C(=O)C(=O)NC1CC1 [compound 17, ((1S)-1-((((1S)-1-Benzyl-2,3-dioxo-3-(cyclopropylamino)propyl)amino)carbonyl)-3-methylbutyl)carbamic acid 5-methoxy-3-oxapentyl ester]
% Swing ([1]; M2, M3 and M4 groups, FIG. 12): there was no significant difference compared with C group
Swing-to-Stance Ratio ([1]; M2 group (administration from E9.5)): recovered to a level at which there was no significant difference with C group
Swing-to-Stance Ratio ([1]; M3 and M4 groups (administration from birth / postnatal Day 10)): closer to 1 than M1 group
motor ability development curve (time on the rod over repeated tests) ([2]; FIG. 10): positioned between M1 group and C group
total time spent on the rod ([2]; FIG. 11): increased to the extent that there was almost no significant difference from C group
